Legend:
Format in all cases: biochemical
KDM4C (JMJD2C) = molecular target: T1, KDM4C (JMJD2C) (Homo sapiens, UniProt Q9H3R0); assay: Histone lysine demethylase AlphaLISA assay, KDM4C; settings: read-out: KDM4C HDME Inhibition IC50
T1 sequence (Q9H3R0 1-349): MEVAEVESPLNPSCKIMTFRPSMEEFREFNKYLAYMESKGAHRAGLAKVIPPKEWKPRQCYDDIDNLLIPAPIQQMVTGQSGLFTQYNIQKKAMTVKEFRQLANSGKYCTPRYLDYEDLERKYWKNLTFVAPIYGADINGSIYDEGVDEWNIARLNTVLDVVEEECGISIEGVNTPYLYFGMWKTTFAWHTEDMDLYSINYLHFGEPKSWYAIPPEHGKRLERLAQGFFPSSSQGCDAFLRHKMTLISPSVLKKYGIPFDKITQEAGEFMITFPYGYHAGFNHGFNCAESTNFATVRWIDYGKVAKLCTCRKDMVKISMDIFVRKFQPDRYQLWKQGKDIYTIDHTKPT
How it was run: (§1)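 Each enzyme was pre-incubated 10 min in buffer, then 10 min with compound in 3% DMSO solution. The reaction started with biotinylated histone H3 peptide substrate plus 25 μM L-ascorbate and 10 μM α-KG at room temperature. Detection used AlphaLISA acceptor beads, then streptavidin donor beads, in the dark.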

KDM3A (JMJD1A) = molecular target: T2, KDM3A (JMJD1A) (Homo sapiens, UniProt Q9Y4C1); assay: Histone lysine demethylase AlphaLISA assay, KDM3A; settings: read-out: KDM3 A HDME Inhibition IC50
T2 construct: 2-end; purchased BPS Bioscience, US; host or cells: Bac (baculovirus system)
T2 sequence (Q9Y4C1 2-1321 limits assumed): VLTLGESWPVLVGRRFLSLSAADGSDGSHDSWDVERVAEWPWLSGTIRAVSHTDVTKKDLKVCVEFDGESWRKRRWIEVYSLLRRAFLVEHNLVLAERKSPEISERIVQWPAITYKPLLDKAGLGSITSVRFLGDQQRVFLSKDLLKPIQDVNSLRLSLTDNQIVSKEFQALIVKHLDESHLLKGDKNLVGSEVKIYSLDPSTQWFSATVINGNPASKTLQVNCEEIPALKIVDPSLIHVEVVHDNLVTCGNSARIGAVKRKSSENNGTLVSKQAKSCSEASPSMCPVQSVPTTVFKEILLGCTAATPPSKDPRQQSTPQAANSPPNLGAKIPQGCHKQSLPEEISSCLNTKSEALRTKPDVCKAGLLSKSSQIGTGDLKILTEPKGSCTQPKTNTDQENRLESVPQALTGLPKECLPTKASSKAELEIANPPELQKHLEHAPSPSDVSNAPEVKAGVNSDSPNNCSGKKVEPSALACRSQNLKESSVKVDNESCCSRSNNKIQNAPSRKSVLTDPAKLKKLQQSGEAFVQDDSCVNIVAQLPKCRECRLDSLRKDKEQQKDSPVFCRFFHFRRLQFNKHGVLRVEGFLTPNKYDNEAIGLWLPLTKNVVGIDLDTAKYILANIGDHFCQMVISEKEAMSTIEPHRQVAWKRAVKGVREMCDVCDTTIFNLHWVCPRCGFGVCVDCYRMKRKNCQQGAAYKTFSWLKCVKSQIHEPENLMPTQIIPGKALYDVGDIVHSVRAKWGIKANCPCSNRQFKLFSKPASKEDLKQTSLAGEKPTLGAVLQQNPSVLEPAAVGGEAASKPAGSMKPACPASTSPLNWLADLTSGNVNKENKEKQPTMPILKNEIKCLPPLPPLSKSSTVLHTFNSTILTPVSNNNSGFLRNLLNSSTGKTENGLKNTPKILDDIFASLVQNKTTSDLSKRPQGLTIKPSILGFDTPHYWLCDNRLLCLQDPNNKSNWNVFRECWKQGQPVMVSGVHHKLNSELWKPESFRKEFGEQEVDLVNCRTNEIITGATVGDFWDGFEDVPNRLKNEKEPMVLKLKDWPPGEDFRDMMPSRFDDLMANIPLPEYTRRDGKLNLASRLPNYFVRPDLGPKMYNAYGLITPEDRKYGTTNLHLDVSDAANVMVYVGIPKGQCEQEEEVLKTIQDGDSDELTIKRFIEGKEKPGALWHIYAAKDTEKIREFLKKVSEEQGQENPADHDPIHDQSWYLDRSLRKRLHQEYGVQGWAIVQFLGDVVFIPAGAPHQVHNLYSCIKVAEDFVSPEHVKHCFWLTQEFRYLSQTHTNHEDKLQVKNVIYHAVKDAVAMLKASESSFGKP
How it was run: as §1

KDM7 (PHF8) = molecular target: T3, KDM7 (PHF8) (Homo sapiens, UniProt Q9UPP1); assay: Histone lysine demethylase AlphaLISA assay, KDM7; settings: read-out: PHF8 HDME Inhibition IC50
T3 construct: KDM7 (PHF8); BRIC; 1-1322; Bac
How it was run: as §1

KDM4A (JMJD2A) = molecular target: T4, KDM4A (JMJD2A) (Homo sapiens, UniProt O75164); assay: Histone lysine demethylase AlphaLISA assay, KDM4A; settings: read-out: KDM4A HDME Inhibition IC50
T4 construct: 1-350; purchased BPS Bioscience, US; host or cells: E. coli
T4 sequence (O75164 1-350): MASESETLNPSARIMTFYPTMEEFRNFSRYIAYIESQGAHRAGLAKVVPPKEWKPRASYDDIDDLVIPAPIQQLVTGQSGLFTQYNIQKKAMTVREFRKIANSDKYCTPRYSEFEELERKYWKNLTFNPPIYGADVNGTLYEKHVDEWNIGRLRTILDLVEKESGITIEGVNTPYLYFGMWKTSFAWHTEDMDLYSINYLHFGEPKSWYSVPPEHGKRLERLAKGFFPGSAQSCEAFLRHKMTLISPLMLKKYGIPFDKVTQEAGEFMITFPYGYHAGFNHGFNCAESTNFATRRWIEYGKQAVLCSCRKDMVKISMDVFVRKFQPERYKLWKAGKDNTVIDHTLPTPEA
How it was run: as §1

T3 sequence (Q9UPP1 37-440 limits assumed): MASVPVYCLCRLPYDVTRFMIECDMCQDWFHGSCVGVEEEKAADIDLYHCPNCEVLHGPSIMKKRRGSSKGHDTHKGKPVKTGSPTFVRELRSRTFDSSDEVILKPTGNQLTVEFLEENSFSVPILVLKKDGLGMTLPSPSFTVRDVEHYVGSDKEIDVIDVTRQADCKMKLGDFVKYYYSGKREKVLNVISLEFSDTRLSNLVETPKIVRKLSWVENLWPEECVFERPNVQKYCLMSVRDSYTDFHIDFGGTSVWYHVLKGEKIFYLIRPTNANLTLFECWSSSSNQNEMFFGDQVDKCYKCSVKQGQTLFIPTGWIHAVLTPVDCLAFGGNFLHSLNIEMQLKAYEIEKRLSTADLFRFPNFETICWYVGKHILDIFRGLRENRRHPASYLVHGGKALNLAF

Structure (SMILES) | IC50 (KDM4C (JMJD2C)) [nM] | IC50 (KDM3A (JMJD1A)) [nM] | IC50 (KDM7 (PHF8)) [nM] | IC50 (KDM4A (JMJD2A)) [nM]
CN(C)CCCCNCc1cc(CN)ccn1 [Compound 2, [2-({[4-(dimethylamino)butyl]-amino}methyl)pyridin-4-yl]methanamine] | > 2500 | > 2500 | > 2500 | > 2500
CN(C)CCNCc1ccnc(CNCCCN(C)Cc2ccccc2)c1 [Compound 18, benzyl[3-({[4-({[2-(dimethylamino)ethyl]-amino}methyl)pyridin-2-yl]methyl}-amino)propyl]-methylamine] | > 2500 | > 2500 | > 2500 | > 2500
COCCNCc1ccnc(CNCCCN(C)Cc2ccccc2)c1 [Compound 19, benzyl(3-{[(4-{[(2-methoxyethyl)amino]-methyl}pyridin-2-yl)methyl]amino}-propyl)methylamine] | > 2500 | > 2500 | > 2500 | > 2500
COc1ccccc1CN1CCC(NC(=O)CNCc2cc(CNC3CC3)ccn2)CC1 [Compound 20, 2-[({4-[(cyclopropylamino)-methyl]pyridin-2-yl}methyl)amino]-N-{1-[(2-methoxyphenyl)methyl]-piperidin-4-yl}acetamide] | 250 to 2500 | > 2500 | < 250 | < 250
CCN(CCN(C)C)C(=O)CN(Cc1cc(CNC(=O)C(F)(F)F)ccn1)C(=O)C(F)(F)F [Compound 26, N-[(2-{[N-({[2-(dimethylamino)ethyl]-(ethyl)carbamoyl}-methyl)-2,2,2-trifluoroacetamido]-methyl}pyridin-4-yl)methyl]-2,2,2-trifIuoroacetamide] | > 2500 | – | – | –
COC(=O)CNCc1cc(/C=N/C2CC2)ccn1 [Compound 59, methyl 2-[({4-[N-cyclopropyl-carboximidoyl]pyridin-2-yl}methyl)amino]-acetate] | 250 to 2500 | > 2500 | 250 to 2500 | 250 to 2500
CCN(CC)CCCCNCc1cc(C2NCCCN2C)ccn1 (stereo not drawn) [Compound 68, [4-(diethylamino)butyl]({[4-(1-methyl-1,3-diazinan-2-yl)pyridin-2-yl]methyl})amine] | 250 to 2500 | – | – | –
O=Cc1ccnc(CNCCCCN(Cc2ccccc2)C2CC2)c1 [Compound 109, 2-[({4-[benzyl-(cyclopropyl)amino]-butyl}amino)methyl]-pyridine-4-carbaldehyde] | 250 to 2500 | > 2500 | > 2500 | > 2500
O=Cc1ccnc(CNCC(=O)NC2CCN(Cc3ccccc3)C2)c1 (stereo not drawn) [Compound 113, N-(1-benzylpyrrolidin-3-yl)-2-{[(4-formylpyridin-2-yl)methyl]amino}-acetamide] | 250 to 2500 | > 2500 | > 2500 | 250 to 2500

From US9650339B2, “Inhibitors of histone demethylases” (Gilead Sciences, Inc., priority 2013, dated 2017)
